Earlier results in patent publication US6825231B2, “Substituted norbornylamino derivatives, processes for their preparation, their use as medicaments or diagnostics, and a medicament comprising them” (Aventis Pharma Deutschland GmbH, priority 1999, dated 2004).

Target: NHE3 (Oryctolagus cuniculus, UniProt P26432)
Details: literature: Donowitz et al. Am. J. Physiol. 276: C136-C144; cited from earlier work

Sequence of NHE3 (P26432 30-832): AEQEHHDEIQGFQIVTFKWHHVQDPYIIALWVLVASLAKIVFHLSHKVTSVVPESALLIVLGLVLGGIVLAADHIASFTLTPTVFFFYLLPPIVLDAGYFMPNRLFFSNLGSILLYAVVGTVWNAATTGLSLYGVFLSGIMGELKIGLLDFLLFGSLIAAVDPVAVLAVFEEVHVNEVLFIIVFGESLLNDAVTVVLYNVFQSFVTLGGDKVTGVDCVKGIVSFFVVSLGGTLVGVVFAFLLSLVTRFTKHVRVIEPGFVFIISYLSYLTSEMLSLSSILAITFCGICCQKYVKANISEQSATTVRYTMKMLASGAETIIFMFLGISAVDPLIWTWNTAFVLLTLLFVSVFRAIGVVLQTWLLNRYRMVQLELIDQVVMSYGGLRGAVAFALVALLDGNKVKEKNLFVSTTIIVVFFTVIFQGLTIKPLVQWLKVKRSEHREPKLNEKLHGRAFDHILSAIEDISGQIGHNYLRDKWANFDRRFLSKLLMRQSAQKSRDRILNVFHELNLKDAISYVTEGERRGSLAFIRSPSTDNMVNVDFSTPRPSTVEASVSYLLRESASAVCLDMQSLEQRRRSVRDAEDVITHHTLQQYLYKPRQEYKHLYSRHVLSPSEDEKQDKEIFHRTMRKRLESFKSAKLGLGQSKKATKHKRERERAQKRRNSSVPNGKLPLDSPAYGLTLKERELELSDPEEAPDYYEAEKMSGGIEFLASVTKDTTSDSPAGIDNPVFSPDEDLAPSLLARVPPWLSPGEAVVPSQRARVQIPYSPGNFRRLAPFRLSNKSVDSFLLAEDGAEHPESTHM

For `CC(C)[C@@H](CC[C@@H](C)[C@H]1CC[C@H]2[C@@H]3[C@H](O)C[C@H]4C[C@@H](NCCCNCCCCN)CC[C@]4(C)[C@H]3CC[C@]12C)OS(=O)(=O)O` [squalamine], the “delay of NHE3 inhibitory activity” value is given as “activity seen after one hour”.
